Test results published in the supplement of paper PMC10627819.

Experiments:
S. aureus DSM 20231 [1] = experiment: fitness (endpoint OD595 vs no drug) (fraction); higher = more growth
In short: (§1)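 Bacterial fitness was scored as optical density at the stationary-phase transition relative to the robust mean of no-drug control wells. Scores are capped at 1. The growth data were OD595 readings every 30 min for 14 h at 37 °C, background-subtracted against the first reading, from 384-well plates inoculated at OD595 0.01 in TSB, LB Lennox or CY.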

S. aureus Newman [2] = experiment: as above
In short: as §1

S. pneumoniae D39V [3] = experiment: as above
In short: as §1

B. subtilis 168 = experiment: Bliss interaction score (quartile over a dose matrix) (fitness difference); higher = more antagonism (negative = synergy)
In short: (§2)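 The Bliss score is observed minus expected fitness, where expected fitness is the product of the single-drug fitness values inferred from the combination data. Fitness is the OD595 at the onset of stationary phase over the plate's robust no-drug mean, capped at 1. Scores are summarised by quartiles over technical, biological and donor/recipient replicates.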

S. aureus DSM 20231 [4] = experiment: as above
In short: as §2

S. aureus Newman [5] = experiment: as above
In short: as §2

S. pneumoniae D39V [6] = experiment: as above
In short: as §2
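Wherever Bliss interaction score (quartile over a dose matrix) is given: first quartile when negative (synergy) and third quartile when positive (antagonism).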
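Wherever fitness (endpoint OD595 vs no drug) is given: OD595 on entry to stationary phase over no-drug wells; at most 1.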

CC1(C)S[C@@H]2[C@H](NC(=O)[C@H](N)c3ccc(O)cc3)C(=O)N2[C@H]1C(=O)O [Amoxicillin] + COc1ccc(C[C@H](N)C(=O)N[C@H]2[C@@H](O)[C@H](n3cnc4c(N(C)C)ncnc43)O[C@@H]2CO)cc1 [Puromycin]
Conditions | fitness
S. aureus DSM 20231 [1], first compound 0.0625 µg/mL, partner 0.39 µg/mL | 0.53
S. aureus DSM 20231 [1], first compound 0.0625 µg/mL, partner 0.78 µg/mL | 0.566
S. aureus DSM 20231 [1], first compound 0.0625 µg/mL, partner 1.56 µg/mL | 0.517
S. aureus DSM 20231 [1], first compound 0.125 µg/mL, partner 0.39 µg/mL | 0.397
S. aureus DSM 20231 [1], first compound 0.125 µg/mL, partner 0.78 µg/mL | 0.448
S. aureus DSM 20231 [1], first compound 0.25 µg/mL, partner 0.39 µg/mL | 0.199
S. aureus DSM 20231 [1], first compound 0.25 µg/mL, partner 0.78 µg/mL | 0.133
S. aureus DSM 20231 [1], first compound 0.25 µg/mL, partner 1.56 µg/mL | 0.0396
S. aureus Newman [2], first compound 0.0625 µg/mL, partner 0.39 µg/mL | 0.874
S. aureus Newman [2], first compound 0.0625 µg/mL, partner 0.78 µg/mL | 0.879
S. aureus Newman [2], first compound 0.0625 µg/mL, partner 1.56 µg/mL | 0.9
S. aureus Newman [2], first compound 0.125 µg/mL, partner 0.39 µg/mL | 0.904
S. aureus Newman [2], first compound 0.125 µg/mL, partner 0.78 µg/mL | 0.882
S. aureus Newman [2], first compound 0.125 µg/mL, partner 1.56 µg/mL | 0.899
S. aureus Newman [2], first compound 0.25 µg/mL, partner 0.39 µg/mL | 0.813
S. pneumoniae D39V [3], first compound 0.0008 µg/mL, partner 1 µg/mL | 0.965
S. pneumoniae D39V [3], first compound 0.0008 µg/mL, partner 2 µg/mL | 0.953
S. pneumoniae D39V [3], first compound 0.0008 µg/mL, partner 4 µg/mL | 0.88
S. pneumoniae D39V [3], first compound 0.0015 µg/mL, partner 1 µg/mL | ≥ 1
S. pneumoniae D39V [3], first compound 0.0015 µg/mL, partner 2 µg/mL | ≥ 1
S. pneumoniae D39V [3], first compound 0.0015 µg/mL, partner 4 µg/mL | 0.954
S. pneumoniae D39V [3], first compound 0.003 µg/mL, partner 1 µg/mL | ≥ 1
S. pneumoniae D39V [3], first compound 0.003 µg/mL, partner 2 µg/mL | 0.962
S. pneumoniae D39V [3], first compound 0.003 µg/mL, partner 4 µg/mL | 0.891

one replicate
Conditions | fitness
S. aureus DSM 20231 [1], first compound 0.0625 µg/mL, partner 3.12 µg/mL | 0.58
S. aureus DSM 20231 [1], first compound 0.0625 µg/mL, partner 6.24 µg/mL | 0.293
S. aureus DSM 20231 [1], first compound 0.125 µg/mL, partner 3.12 µg/mL | 0.417
S. aureus DSM 20231 [1], first compound 0.125 µg/mL, partner 6.24 µg/mL | 0.0695
S. aureus DSM 20231 [1], first compound 0.25 µg/mL, partner 3.12 µg/mL | 0.0126
S. aureus DSM 20231 [1], first compound 0.25 µg/mL, partner 6.24 µg/mL | 0.0079
S. aureus DSM 20231 [1], first compound 0.5 µg/mL, partner 0.39 µg/mL | 0.0239
S. aureus DSM 20231 [1], first compound 0.5 µg/mL, partner 0.78 µg/mL | 0.0124
S. aureus DSM 20231 [1], first compound 0.5 µg/mL, partner 1.56 µg/mL | 0.0417
S. pneumoniae D39V [3], first compound 0.006 µg/mL, partner 1 µg/mL | 0.617
S. pneumoniae D39V [3], first compound 0.006 µg/mL, partner 2 µg/mL | 0.685
S. pneumoniae D39V [3], first compound 0.006 µg/mL, partner 4 µg/mL | 0.612

Conditions | Bliss interaction score
B. subtilis 168 | 0.0627
S. aureus DSM 20231 [4] | 0.0606
S. aureus Newman [5] | 0.0595
S. pneumoniae D39V [6] | 0.277

CO/N=C(\C(=O)N[C@@H]1C(=O)N2C(C(=O)[O-])=C(C[N+]3(C)CCCC3)CS[C@H]12)c1csc(N)n1 [Cefepime] + CCCCCCCCCC(=O)N[C@@H]1[C@H]([C@@H]([C@H](O[C@H]1OC2=C3C=C4C=C2OC5=C(C=C(C=C5)[C@H]([C@H]6C(=O)N[C@@H](C7=C(C(=CC(=C7)O)OC8[C@H]([C@H]([C@@H]([C@H](O8)CO)O)O)O)C9=C(C=CC(=C9)[C@H](C(=O)N6)NC(=O)[C@@H]4NC(=O)[C@@H]1C2=CC(=CC(=C2)OC2=C(C=CC(=C2)[C@H](C(=O)N[C@H](CC2=CC(=C(O3)C=C2)Cl)C(=O)N1)N)O)O)O)C(=O)O)O[C@H]1[C@@H]([C@H]([C@@H]([C@H](O1)CO)O)O)NC(=O)C)Cl)CO)O)O [Teicoplanin]
fitness, main component drawn
Conditions | first compound 0.125 µg/mL | first compound 0.25 µg/mL | first compound 0.5 µg/mL
S. aureus DSM 20231 [1], partner 0.1562 µg/mL | 0.9 | 0.88 | 0.864
S. aureus DSM 20231 [1], partner 0.3125 µg/mL | 0.959 | 0.929 | 0.919
S. aureus DSM 20231 [1], partner 0.625 µg/mL | 0.984 | 0.87 | 0.842
S. aureus Newman [2], partner 0.1562 µg/mL | 0.892 | 0.827 | 0.713
S. aureus Newman [2], partner 0.3125 µg/mL | 0.897 | 0.799 | 0.73
S. aureus Newman [2], partner 0.625 µg/mL | 0.891 | 0.766 | 0.646

fitness, S. aureus Newman [2], one replicate, main component drawn
Conditions | first compound 0.125 µg/mL | first compound 0.25 µg/mL | first compound 0.5 µg/mL
partner 0.62 µg/mL | 0.712 | 0.61 | 0.625
partner 1.24 µg/mL | 0.7 | 0.634 | 0.576
partner 2.48 µg/mL | 0.459 | 0.173 | 0.203

main component drawn
Conditions | Bliss interaction score
B. subtilis 168 | -0.172
S. aureus DSM 20231 [4] | -0.0986
S. aureus Newman [5] | -0.0867
S. pneumoniae D39V [6] | 0.0453

CCCCCCCCCC(=O)N[C@@H](Cc1c[nH]c2ccccc12)C(=O)N[C@H](CC(N)=O)C(=O)N[C@@H](CC(=O)O)C(=O)N[C@@H]1C(=O)NCC(=O)N[C@@H](CCCN)C(=O)N[C@@H](CC(=O)O)C(=O)N[C@H](C)C(=O)N[C@@H](CC(=O)O)C(=O)NCC(=O)N[C@H](CO)C(=O)N[C@@H]([C@H](C)CC(=O)O)C(=O)N[C@@H](CC(=O)c2ccccc2N)C(=O)O[C@@H]1C [Daptomycin] + CCCCCCCCCC(=O)N[C@@H]1[C@H]([C@@H]([C@H](O[C@H]1OC2=C3C=C4C=C2OC5=C(C=C(C=C5)[C@H]([C@H]6C(=O)N[C@@H](C7=C(C(=CC(=C7)O)OC8[C@H]([C@H]([C@@H]([C@H](O8)CO)O)O)O)C9=C(C=CC(=C9)[C@H](C(=O)N6)NC(=O)[C@@H]4NC(=O)[C@@H]1C2=CC(=CC(=C2)OC2=C(C=CC(=C2)[C@H](C(=O)N[C@H](CC2=CC(=C(O3)C=C2)Cl)C(=O)N1)N)O)O)O)C(=O)O)O[C@H]1[C@@H]([C@H]([C@@H]([C@H](O1)CO)O)O)NC(=O)C)Cl)CO)O)O [Teicoplanin]
fitness, main component drawn
Conditions | first compound 0.125 µg/mL | first compound 0.25 µg/mL | first compound 0.5 µg/mL | first compound 1 µg/mL | first compound 2 µg/mL
S. aureus DSM 20231 [1], partner 0.1562 µg/mL | 0.976 | 0.977 | ≥ 1 | 0.949 | ≥ 1
S. aureus DSM 20231 [1], partner 0.3125 µg/mL | ≥ 1 | ≥ 1 | ≥ 1 | ≥ 1 | 0.991
S. aureus DSM 20231 [1], partner 0.625 µg/mL | ≥ 1 | ≥ 1 | ≥ 1 | ≥ 1 | ≥ 1
S. aureus Newman [2], partner 0.1562 µg/mL | 0.998 | 0.992 | ≥ 1 | – | –
S. aureus Newman [2], partner 0.3125 µg/mL | ≥ 1 | ≥ 1 | ≥ 1 | – | –
S. aureus Newman [2], partner 0.625 µg/mL | ≥ 1 | ≥ 1 | ≥ 1 | – | –

fitness, S. aureus Newman [2], one replicate, main component drawn
Conditions | first compound 0.5 µg/mL | first compound 1 µg/mL | first compound 2 µg/mL
partner 0.62 µg/mL | 0.791 | 0.785 | 0.924
partner 1.24 µg/mL | 0.746 | 0.753 | 0.765
partner 2.48 µg/mL | 0.461 | 0.471 | 0.501

main component drawn
Conditions | Bliss interaction score
B. subtilis 168 | 0.0936
S. aureus DSM 20231 [4] | 0.0282
S. aureus Newman [5] | 0.0337
S. pneumoniae D39V [6] | 0.0818

CCN(CC)CCOC(=O)c1ccc(N)cc1 [Procaine] + CCCCCCCCCC(=O)N[C@@H]1[C@H]([C@@H]([C@H](O[C@H]1OC2=C3C=C4C=C2OC5=C(C=C(C=C5)[C@H]([C@H]6C(=O)N[C@@H](C7=C(C(=CC(=C7)O)OC8[C@H]([C@H]([C@@H]([C@H](O8)CO)O)O)O)C9=C(C=CC(=C9)[C@H](C(=O)N6)NC(=O)[C@@H]4NC(=O)[C@@H]1C2=CC(=CC(=C2)OC2=C(C=CC(=C2)[C@H](C(=O)N[C@H](CC2=CC(=C(O3)C=C2)Cl)C(=O)N1)N)O)O)O)C(=O)O)O[C@H]1[C@@H]([C@H]([C@@H]([C@H](O1)CO)O)O)NC(=O)C)Cl)CO)O)O [Teicoplanin]
fitness, main component drawn
Conditions | first compound 85.5 µg/mL | first compound 171 µg/mL | first compound 342 µg/mL
S. aureus DSM 20231 [1], partner 0.1562 µg/mL | ≥ 1 | ≥ 1 | 0.992
S. aureus DSM 20231 [1], partner 0.3125 µg/mL | 0.975 | ≥ 1 | ≥ 1
S. aureus DSM 20231 [1], partner 0.625 µg/mL | ≥ 1 | ≥ 1 | ≥ 1
S. aureus Newman [2], partner 0.1562 µg/mL | 0.996 | ≥ 1 | 0.997
S. aureus Newman [2], partner 0.3125 µg/mL | 0.975 | 0.981 | 0.963
S. aureus Newman [2], partner 0.625 µg/mL | 0.83 | 0.898 | 0.889

fitness, S. aureus Newman [2], one replicate, main component drawn
Conditions | first compound 85.5 µg/mL | first compound 171 µg/mL | first compound 342 µg/mL
partner 0.62 µg/mL | 0.774 | 0.738 | 0.765
partner 1.24 µg/mL | 0.785 | 0.705 | 0.726
partner 2.48 µg/mL | 0.407 | 0.496 | 0.478

main component drawn
Conditions | Bliss interaction score
B. subtilis 168 | -0.0776
S. aureus DSM 20231 [4] | 0.044
S. aureus Newman [5] | 0.0323
S. pneumoniae D39V [6] | -0.113
